# pEC50: −log10 of the molar value.
# Tested on: AMPK
# Test: AMPK activation assay (enzyme-linked immunosorbent assay)
# Assay type: cell-based
# Procedure, shortened: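 Activator screen performed per well-known kit methods.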
row,pEC50,Structure (SMILES)
1,> 6.30,"CCS(=O)(=O)c1ccc(C(=O)C2CCN(C(=O)c3ccc(C(=O)NC4CCN(Cc5ccc(C#N)cc5)CC4)nc3)CC2)cc1 [Compound 260, N-(1-(4-cyanobenzyl)piperidin-4-yl)-5-(4-(4-(ethylsulfonyl)benzoyl)piperidine-1-carbonyl)picolinamide]"
2,> 6.30,"COc1ccc(C(=O)C2CCN(C(=O)c3ccc(C(=O)NC4CCN(Cc5ccc(C#N)cc5)CC4(F)F)cn3)CC2)cc1 (stereo not drawn) [Compound 498, N-(1-(4-cyanobenzyl)-3,3-difluoropiperidin-4-yl)-6-(4-(4-methoxybenzoyl)piperidine-1-carbonyl)nicotinamide]"
3,< 5.00,"O=C(c1ccc(C(=O)N2CCN(CCc3ccccc3)CC2)nc1)N1CCN(c2ccccc2)CC1 [Compound 90, (4-phenethylpiperazin-1-yl)(5-(4-phenylpiperazine-1-carbonyl)pyridin-2-yl)methanone]"
4,5.30 to 6.00,"CS(=O)(=O)c1ccc(C(=O)C2CCN(C(=O)c3ccc(C(=O)NC4CCN(Cc5ccc(N6CCCC6)cc5)CC4)cn3)CC2)cc1 [Compound 229, 6-(4-(4-(methylsulfonyl)benzoyl)piperidine-1-carbonyl)-N-(1-(4-(pyrrolidin-1-yl)benzyl)piperidin-4-yl)nicotinamide]"
5,> 6.30,"N#Cc1ccc(CN2CCC(NC(=O)c3ccc(C(=O)N4CCC(C(=O)c5ccc(N6CCOCC6)cc5)CC4)cn3)CC2)cc1 [Compound 376, N-(1-(4-cyanobenzyl)piperidin-4-yl)-5-(4-(4-morpholinobenzoyl)piperidine-1-carbonyl)picolinamide]"
6,> 6.30,"CS(=O)(=O)c1ccc(OC2CCN(C(=O)c3ccc(C(=O)N[C@@H]4CCN(Cc5ccc(OC(F)(F)F)cc5)C[C@H]4F)nc3)CC2)cc1 (relative stereo) [Compound 255, N-((trans)-3-fluoro-1-(4-(trifluoromethoxy)benzyl)piperidin-4-yl)-5-(4-(4-(methylsulfonyl)phenoxy)piperidine-1-carbonyl)picolinamide]"
7,> 6.30,"N#Cc1ccc(CN2CCC(NC(=O)c3ccc(C(=O)N4CC[C@@H](Oc5ccc(F)cc5)C4)cn3)CC2)cc1 [Compound 278, (R)-N-(1-(4-cyanobenzyl)piperidin-4-yl)-5-(3-(4-fluorophenoxy)pyrrolidine-1-carbonyl)picolinamide]"
8,> 6.30,"CN(C)C(=O)c1ccc(OC2CCN(C(=O)c3ccc(C(=O)Nc4ccc(Oc5ccc(F)cc5)nc4)nc3)CC2)cc1 [Compound 360, 5-(4-(4-(dimethylcarbamoyl)phenoxy)piperidine-1-carbonyl)-N-(6-(4-fluorophenoxy)pyridin-3-yl)picolinamide]"
9,> 6.30,"N#Cc1ccc(OC2CCN(C(=O)c3ccc(C(=O)NC4CCN(Cc5ccc(N6CCOCC6)cc5)CC4)cn3)CC2)cc1 [Compound 337, 6-(4-(4-cyanophenoxy)piperidine-1-carbonyl)-N-(1-(4-morpholinobenzyl)piperidin-4-yl)nicotinamide]"
10,> 6.30,"COc1ccc(C(=O)C2CCN(C(=O)c3ccc(C(=O)NC4CCN(Cc5cc(F)cc(F)c5)CC4)cn3)CC2)cc1 [Compound 310, N-(1-(3,5-difluorobenzyl)piperidin-4-yl)-6-(4-(4-methoxybenzoyl)piperidine-1-carbonyl)nicotinamide]"
11,> 6.30,"N#Cc1ccc(CN2CCC(C(=O)Nc3ccc(C(=O)N4CCC(Oc5ccc(F)cc5)CC4)cn3)CC2)cc1 [Compound 173, 1-(4-cyanobenzyl)-N-(5-(4-(4-fluorophenoxy)piperidine-1-carbonyl)pyridin-2-yl)piperidine-4-carboxamide]"
12,5.30 to 6.00,"N#Cc1ccc(Oc2ccc(NC(=O)c3ccc(C(=O)N4CCC(S(=O)(=O)c5ccc(F)cc5)CC4)nc3)cn2)cc1 [Compound 472, N-(6-(4-cyanophenoxy)pyridin-3-yl)-6-(4-(4-fluorophenylsulfonyl)piperidine-1-carbonyl)nicotinamide]"
13,< 5.00,"O=C(Nc1ccc(-c2ccccc2)cc1)c1ccc(C(=O)NC2CCN(Cc3ccccc3)CC2)nc1 [Compound 105, N2-(1-benzylpiperidin-4-yl)-N5-(biphenyl-4-yl)pyridine-2,5-dicarboxamide]"
14,> 6.30,"N#Cc1ccc(CN2CCC(NC(=O)c3ccc(C(=O)N4CCN(S(=O)(=O)c5ccc(F)cc5)CC4)cn3)CC2)cc1 [Compound 78, N-(1-(4-cyanobenzyl)piperidin-4-yl)-5-(4-(4-fluorophenylsulfonyl)piperazine-1-carbonyl)picolinamide]"
15,5.30 to 6.00,"O=C(Nc1ccc(N2CCOCC2)cc1)c1ccc(C(=O)N2CCN(Cc3ccc(F)cc3)CC2)cn1 [Compound 40, 5-(4-(4-fluorobenzyl)piperazine-1-carbonyl)-N-(4-morpholinophenyl)picolinamide]"
16,> 6.30,"COc1ccc(C(=O)C2CCN(c3ccc(C(=O)NC4CCN(Cc5ccc(C#N)cc5)CC4)nc3)CC2)cc1 [Compound 302, N-(1-(4-cyanobenzyl)piperidin-4-yl)-5-(4-(4-methoxybenzoyl)piperidin-1-yl)picolinamide]"
17,> 6.30,"COc1cc(C#N)ccc1OC1CCN(c2ccc(C(=O)NC3CCN(Cc4ccc(C#N)cc4)CC3)nc2)CC1 [Compound 286, 5-(4-(4-cyano-2-methoxyphenoxy)piperidin-1-yl)-N-(1-(4-cyanobenzyl)piperidin-4-yl)picolinamide]"

row,pEC50,Structure (SMILES)
1,> 6.30,"CS(=O)(=O)c1ccc(OC2CCN(C(=O)c3ccc(C(=O)NC4CCN(Cc5cc(F)cc(F)c5)CC4)cn3)CC2)cc1 [Compound 236, N-(1-(3,5-difluorobenzyl)piperidin-4-yl)-6-(4-(4-(methylsulfonyl)phenoxy)piperidine-1-carbonyl)nicotinamide]"
2,6.00 to 6.30,"NC(=O)c1ccc(CN2CCC(NC(=O)c3ccc(C(=O)N4CCN(Cc5ccc(F)cc5)CC4)cn3)CC2)cc1 [Compound 201, N-(1-(4-carbamoylbenzyl)piperidin-4-yl)-5-(4-(4-fluorobenzyl)piperazine-1-carbonyl)picolinamide]"
3,> 6.30,"COc1cc(C#N)ccc1OC1CCN(C(=O)c2ccc(C(=O)NC3CCN(Cc4ccc(C#N)cc4)CC3)nc2)CC1 [Compound 66, 5-(4-(4-cyano-2-methoxyphenoxy)piperidine-1-carbonyl)-N-(1-(4-cyanobenzyl)piperidin-4-yl)picolinamide]"
4,> 6.30,"COc1ccc(C(=O)C2CCN(C(=O)c3ccc(C(=O)N[C@@H]4CCN(Cc5ccc(OC(C)C)cc5)C[C@H]4F)cn3)CC2)cc1 (relative stereo) [Compound 353, N-((trans)-3-fluoro-1-(4-isopropoxybenzyl)piperidin-4-yl)-6-(4-(4-methoxybenzoyl)piperidine-1-carbonyl)nicotinamide]"
5,> 6.30,"N#Cc1ccc(CN2CCC(NC(=O)c3ccc(C(=O)N4CCC(Oc5ccc(S(F)(F)(F)(F)F)cc5)CC4)nc3)CC2)cc1 [Compound 493, N-(1-(4-cyanobenzyl)piperidin-4-yl)-6-(4-(4-(pentafluorosulfanyl)phenoxy)piperidine-1-carbonyl)nicotinamide]"
6,> 6.30,"CC(=O)c1ccc(OC2CCN(C(=O)c3ccc(C(=O)NC4CCN(Cc5ccc(C#N)cc5)CC4)nn3)CC2)cc1 [Compound 437, 6-(4-(4-acetylphenoxy)piperidine-1-carbonyl)-N-(1-(4-cyanobenzyl)piperidin-4-yl)pyridazine-3-carboxamide]"
7,> 6.30,"N#Cc1ccc(CN2CCC(NC(=O)c3ccc(C(=O)N4CCC(C(=O)c5ccc(F)cc5F)CC4)cn3)CC2)cc1 [Compound 271, N-(1-(4-cyanobenzyl)piperidin-4-yl)-5-(4-(2,4-difluorobenzoyl)piperidine-1-carbonyl)picolinamide]"
8,> 6.30,"COc1ccc(CN2CCC(NC(=O)c3ccc(C(=O)N4CCC(Oc5ccc(S(F)(F)(F)(F)F)cc5)CC4)nc3)CC2)cc1 [Compound 495, N-(1-(4-methoxybenzyl)piperidin-4-yl)-6-(4-(4-(pentafluorosulfanyl)phenoxy)piperidine-1-carbonyl)nicotinamide]"
9,> 6.30,"N#Cc1ccc(CN2CCC(NC(=O)c3ccc(N4CCC(C(=O)c5ccc(Cl)cc5)CC4)cn3)CC2)cc1 [Compound 266, 5-(4-(4-chlorobenzoyl)piperidin-1-yl)-N-(1-(4-cyanobenzyl)piperidin-4-yl)picolinamide]"
10,5.00 to 5.30,"N#Cc1ccc(CC2CCC(NC(=O)c3cccc(C(=O)N4CCN(Cc5ccc(F)cc5)CC4)n3)CC2)cc1 (stereo not drawn) [Compound 99, N-(4-(4-cyanobenzyl)cyclohexyl)-6-(4-(4-fluorobenzyl)piperazine-1-carbonyl)picolinamide]"
11,> 6.30,"COc1ccc(CN2CCC(NC(=O)c3ccc(C(=O)N4CCC(Oc5cccc(NC(=O)C6CC6)c5)CC4)nc3)CC2)cc1 [Compound 435, 6-(4-(3-(cyclopropanecarboxamido)phenoxy)piperidine-1-carbonyl)-N-(1-(4-methoxybenzyl)piperidin-4-yl)nicotinamide]"
12,< 5.00,"CN1CCN(c2ccc(NC(=O)c3ccc(C(=O)N4CCN(Cc5ccc(F)cc5)CC4)cn3)cc2)CC1 [Compound 41, 5-(4-(4-fluorobenzyl)piperazine-1-carbonyl)-N-(4-(4-methylpiperazin-1-yl)phenyl)picolinamide]"
13,> 6.30,"O=C(Nc1ccc(Oc2ccc(F)cc2)nc1)c1ccc(C(=O)N2CCN(Cc3ccc(F)cc3)CC2)cn1 [Compound 65, 5-(4-(4-fluorobenzyl)piperazine-1-carbonyl)-N-(6-(4-fluorophenoxy)pyridin-3-yl)picolinamide]"
14,6.00 to 6.30,"N#Cc1ccc(O[C@H]2CC[C@H](NC(=O)c3ccc(C(=O)N4CCC(Oc5ccc(F)cc5)CC4)cn3)CC2)cc1 [Compound 169, N-((trans)-4-(4-cyanophenoxy)cyclohexyl)-5-(4-(4-fluorophenoxy)piperidine-1-carbonyl)picolinamide]"
15,> 6.30,"O=C(Nc1ccc(Oc2ccc(F)cc2)nc1)c1cnc(C(=O)N2CCC(C(=O)c3ccc(F)cc3F)CC2)cn1 [Compound 206, 5-(4-(2,4-difluorobenzoyl)piperidine-1-carbonyl)-N-(6-(4-fluorophenoxy)pyridin-3-yl)pyrazine-2-carboxamide]"
16,> 6.30,"COc1ccc(C(=O)C2CCN(C(=O)c3ccc(C(=O)Nc4ccc(Oc5ccc(C#N)cc5)nc4C)cn3)CC2)cc1 [Compound 478, N-(6-(4-cyanophenoxy)-2-methylpyridin-3-yl)-6-(4-(4-methoxybenzoyl)piperidine-1-carbonyl)nicotinamide]"

# Source: patent US20150087673A1, “METHODS FOR USING AND BIOMARKERS FOR AMPK-ACTIVATING COMPOUNDS” (RIGEL PHARMACEUTICALS, INC., priority 2013, published 2015)
